Like-named read-outs stand apart in the source and are kept apart here. Where no end group is shown, it is not given here. [ ]: non-standard residue; d: D form.
Assays:
[1] = system: SR-BI/CLA-1; type: cell-based, mouse; details: 24 h; for activity as modulator of SR-BI, ABCA1 and IL-1β gene expression compared with other LPS preparations / relative activities for the suppressive effect on SR-BI/CLA-1 and ABCA1 expression and SR-BI/CLA-1 protein expression: 10 ng/ml, RAW cells
Method: (§1) Cell culture and treatment.
(§2) RNA isolation and cDNA preparation. The total RNA of cultured cells is isolated and purified using Trizol reagent (Gibco BRL, Grand Island, N.Y.) according to the manufacturer's protocol. The concentration and quality of RNA were determined by UV absorbance at 260 and 280 nm. To prepare cDNA, total RNA (3 μg) is added to a mixture containing the following: 6 μl of 5× first-strand buffer (75 mM KCl, 50 mM Tris-HCl [pH 8.3], 3 mM MgCl2), 1.5 μl of deoxynucleoside triphosphates (10 mM [each] dATP, dCTP, dTTP, and dGTP), 1.5 μl of 0.0156 U (0.4 μg) of random hexamers, and 0.2 U of Moloney murine leukemia virus reverse transcriptase (all from Gibco BRL, Gaithersburg, Md.); 0.004 U of RNasin (Promega, Madison, Wis.); and RNase-free water to a final volume of 30 μl per 3 μg of cDNA. Samples are incubated at 37° C. for 60 min. Preliminary experiments are undertaken to achieve optimal conditions for amplifying mRNA for each of the gene products.
Reverse transcription-PCR (RT-PCR). A mixture of 37.2 μl of RNase-free water, 5 μl of 10× reaction buffer, and 0.5 μl (5 U) of AmpliTaq Gold DNA polymerase (Applied Biosystems, Roche Molecular Systems, Inc., Branchburg, N.J.), sense and antisense primers (1 μl each), and 0.3 μl (3 μCi) of [α-^32P]dCTP (Amersham Pharmacia Biotech, San Diego, Calif.) is vortexed, and 46 μl is aliquoted into each tube, containing 4 μl of cDNA, and overlaid with 50 μl of mineral oil (Sigma Chemical Co.). cDNA is amplified in a Perkin-Elmer (Norwalk, Conn.) System 2400 DNA thermal cycler, with denaturation for 1 min at 94° C., annealing for 1 min at 50° C., and extension for 2 min at 72° C. for GADPH (glyceraldehyde-3-phosphate dehydrogenase) (19 cycles), ABCA1 (28 cycles), SR-BI/CLA-1, and interleukin-1 [3 (IL-1β (27 cycles). The primers used in these analyses are as follows: GADPH, (SEQ ID NO:1) 5′-[…]-3′ and (SEQ ID NO:2) 5′-[…]-3′; SR-BI/CLA-1, (SEQ ID NO:3) 5′-CCA […] GGC TTC TGC-3′ and (SEQ ID NO:4) 5′-CTG AAT GGC CTC CTT ATC C-3′; ABCA1, (SEQ ID NO:5) 5′-CAACTACAAAGCCCTCTTTG-3′ and (SEQ ID NO:6) 5′-CTTGGCTGTTCTCCATGAAG-3′; and IL-1β, (SEQ ID NO:7) 5′-CTG AAA GCT CTC CAC CTC-3′ and (SEQ ID NO:8) 5′-GTG CTG ATG TAC CAG TTG-3′.
(§3) For the densitometry analysis, the intensities of the bands are measured with the Gel-Pro Analyzer 3.0 computer program and normalized with GADPH intensity.

[2] = system: SR-BI/CLA-1; experiment: Competition for 125I-HDL binding sites in RAW cells; design: species or system mouse; details: 50 μg/ml LPS analogs
Method: Competition Binding Experiments. RAW cells are cultured for 24 hr in serum free DMEM before experiment. […] Cell radioactivity is measured as described in the “LPS-binding assay” section.

[3] = target: T1, CLA-1 (Homo sapiens, UniProt Q8WTV0); type: binding; details: for competition of unlabelled ligands against 125I-LPS (0111:B4): 100× excess unlabeled ligand, CLA-1 overexpressing and mock-transfected cells
T1 construct: using the expression plasmid pTRE2 (Clontech, Pal Alto, Calif.), encoding a CLA-1 protein (pTRE2-CLA-1); expressed in transfected cells; host or cells: HeLa (Tet-off) cells (Clontech), stably co-transfected with pTRE2-CLA-1 and pTK-Hyg and selected with hygromycin
T1 sequence (Q8WTV0 1-509 isoform Q8WTV0-2): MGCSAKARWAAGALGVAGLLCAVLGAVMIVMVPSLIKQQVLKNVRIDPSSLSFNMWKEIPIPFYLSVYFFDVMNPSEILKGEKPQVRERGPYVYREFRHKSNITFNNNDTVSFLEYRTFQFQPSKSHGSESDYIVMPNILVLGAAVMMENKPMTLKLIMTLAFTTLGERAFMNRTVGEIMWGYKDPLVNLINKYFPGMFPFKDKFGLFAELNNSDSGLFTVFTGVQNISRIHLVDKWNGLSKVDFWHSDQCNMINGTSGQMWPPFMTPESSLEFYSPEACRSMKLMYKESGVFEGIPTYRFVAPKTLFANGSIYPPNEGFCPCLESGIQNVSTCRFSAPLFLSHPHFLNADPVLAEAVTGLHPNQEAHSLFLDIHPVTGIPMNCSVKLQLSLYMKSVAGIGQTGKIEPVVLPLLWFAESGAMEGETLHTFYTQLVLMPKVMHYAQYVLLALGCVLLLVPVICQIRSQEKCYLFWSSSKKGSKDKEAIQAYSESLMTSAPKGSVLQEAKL
Method: The lipopolysaccharide 0111:B4 (Sigma) is iodinated as reported by Ulevitch, R J. (1978) (“THE PREPARATION AND CHARACTERIZATION OF A RADIO IODINATED BACTERIAL LIPOPOLYSACCHARIDE,” Immunochemistry 15:157-164). […] After a 2-hr-incubation on ice, the cells are rinsed with ice-cold HBSS and utilized for radioactivity measurements as reported by Bocharov, A. V. et al. (2001) (“CHARACTERIZATION OF A 95 KDA HIGH AFFINITY HUMAN HIGH DENSITY LIPOPROTEIN-BINDING PROTEIN,” Biochemistry 40:4407-4416). Specific binding is determined as the difference between total and non-specific binding, and normalized by protein content.
HeLa cells grown until 70% confluence in DMEM with 10% FCS are washed with PBS and cultured for 24 hr in serum-free DMEM. […] After washing with ice-cold PBS, the cells are hydrolyzed in 1 N NaOH. Radioactivity is counted in an LKB Wallac Ultragamma counter.

[4] = system: IL-1β; experiment: RT-PCR of IL-1β mRNA in RAW cells exposed to LPS preparations; type: cell-based, mouse; details: 24 h
Method: as §1, §2
(§4) Reverse transcription-PCR (RT-PCR). […]
as §3

[5] = system: THP-1 cells; experiment: TNFα-induced IL-6 and IL-8 secretion in THP-1 cells; type: cell-based, human
From the text: (§5) Assays for cytokines and lactate dehydrogenase (LD).

[6] = system: THP-1 cells; experiment: LPS-stimulated cytokine production in THP-1 cells (ELISA); type: cell-based, human; details: 10 ng/ml LPS, 24 h
Method: (§6) THP-1 and CLA-1 overexpressing HeLa cells. Human monocyte-macrophages, THP-1 (ATCC [American Type Culture Collection] TIB 71), are grown in 48-well plates in RPMI 1640 medium supplemented with 10% fetal calf serum (FCS), penicillin (100 U/ml), and streptomycin (100 μg/ml). All experiments involving LPS-induced interleukin production utilize the same media except that 1% FCS was used. Hela cells were cultured as previously reported (Vishnyakova, T. G. et al. (2003) “BINDING AND INTERNALIZATION OF LIPOPOLY[…] CLA-1, A HUMAN ORTHOLOGUE OF RODENT […] RECEPTOR B1,” J. Biol. Chem 278:22771-22780).
Assays for cytokines and lactate dehydrogenase (LD). […]

[7] = Limulus amebocyte lysate (LAL) assay for LPS incubated with peptides; details: RPMI-1640 1% FCS or DPBS; 10 ng/ml LPS, 10 μg/ml peptide, 37° C., 24 h
From the text: Limulus Amebocyte Lysate (LAL) Assay for LPS.
Limulus amebocyte lysate (LAL) assay for LPS.

[8] = system: THP-1 cells; experiment: LTA, Gro-EL and HSP60 stimulated IL-8/IL-6 production in THP-1 cells; type: cell-based, human; details: 1 μg/ml LTA or Gro-EL, 10-200 fold excess of peptide
Method: as §6, §5

[9] = system: ABCA1; experiment: RT-PCR of ABCA1 mRNA in RAW cells exposed to LPS preparations; type: cell-based, mouse; details: inhibitor 20 mM added 2 h before LPS 10 ng/ml, 24 h
Method: as §1, §2, §4, §3

[10] = target: T1, CLA-1; experiment: 125I-HDL binding and HDL-CE uptake in CLA-1 stably transfected HeLa cells
Method: CLA-1 Overexpression HeLa cells. HeLa (Tet-off) cells (Clontech, Pal Alto, Calif.) are grown in DMEM (Invitrogen), supplemented with 10% fetal calf serum, 2 mM glutamine, 100 IU/ml of penicillin, 100 μg/ml of streptomycin, and 100 μg/ml of G418. Cells were transfected with FuGENE-6 (Roche Diagnostics), using the expression plasmid pTRE2 (Clontech, Pal Alto, Calif.), encoding a CLA-1 protein (pTRE2-CLA-1). Cells were co-transfected with pTRE2-CLA-1 and pTK-Hyg (Clontech, Pal Alto, Calif.), using a 1:20 ratio, and selected with 400 μg/ml of hygromycin. Hygromycin resistant cells were screened for the expression of the CLA-1 protein by utilizing rabbit anti-SR-BI/CLA-1 (Novus Biological, Inc) by Western blotting.
HDL-Binding And Cholesteryl Oleoyl Uptake Assays. Saturation binding experiments are performed at 4° C. using ^125I-HDL concentrations between 1.25 and 40 μg/ml. […] After a 2 hr-incubation on ice, specific binding is determined as reported by Bocharov, A. V. et al. (2001) (“CHARACTERIZATION OF A 95 KDA HIGH AFFINITY HUMAN HIGH DENSITY LIPOPROTEIN-BINDING PROTEIN,” Biochemistry 40:4407-4416).
HDL-[^3H]CE uptake experiments are performed in a serum free DMEM containing 0.2% BSA. […] Specific uptake is determined as the difference between total and nonspecific uptake.

[11] = target: T2, CLA-1 (CD36 and LIMPII Analogous-1), human scavenger receptor class B type I (human, UniProt Q8WTV0 1-552); experiment: confocal microscopy of Alexa 568-labelled peptide uptake, CLA-1 HeLa against mock HeLa
T2 construct: whole, on cells; Target is CLA-1 on stably transfected HeLa cells, compared with mock-transfected HeLa cells, which carry a low endogenous level of CLA-1; also called SR-BI/CLA-1; human SR-BI
T2 sequence (looked up): T1 sequence (Q8WTV0 1-509 isoform Q8WTV0-2)

[12] = inhibitor 20 mM added 2 h before LPS 10 ng/ml

diphosphoryllipid A [DPLA]
activity as modulator of SR-BI, ABCA1 and IL-1β gene expression compared with other LPS preparations [1]: the same activity as the complete form of LPS from E. coli
relative activities for the suppressive effect on SR-BI/CLA-1 and ABCA1 expression and SR-BI/CLA-1 protein expression [1]: LPS (Re595)>LPS (0111:B4)>DPLA>MPLA
decrease of 125I-HDL-binding by forms of LPS [2]: similarly decreased
competition of unlabelled ligands against 125I-LPS (0111:B4) [3]: compete against iodinated LPS in both cell lines

monophosphoryllipid A [MPLA]
activity as modulator of SR-BI, ABCA1 and IL-1β gene expression compared with other LPS preparations [1]: decreased activity compared to the other LPS derivatives
relative activities for the suppressive effect on SR-BI/CLA-1 and ABCA1 expression and SR-BI/CLA-1 protein expression [1]: LPS (Re595)>LPS (0111:B4)>DPLA>MPLA
activity as modulator of SR-BI, ABCA1 and IL-1β gene expression compared with other LPS preparations ([1]; listed as Re595 MPLA): less potent modulator
competition of unlabelled ligands against 125I-LPS (0111:B4) [3]: compete against iodinated LPS in both cell lines
potency for IL-1β gene induction relative to Re595 LPS or DPLA ([4]; 10 ng/ml, RAW cells): approximately one-half

DWLKAFYDKVAEKLKEAF-P-DWLKAFYDKVAEKLKEAF [D-37PA] ([dD][dW][dL][dK][dA][dF][dY][dD][dK][dV][dA][dE][dK][dL][dK][dE][dA][dF][dP][dD][dW][dL][dK][dA][dF][dY][dD][dK][dV][dA][dE][dK][dL][dK][dE][dA][dF]) [Peptide D-37PA]
effect on TNFα-induced IL-6 and IL-8 production [5]: neither peptides was effective in blocking
competition against 125I-LPS ([3]; 1 μg/ml 125I-LPS, mock transfected and CLA-1 overexpressing HeLa cells): competed in a dose-dependent manner
effect on LPS-stimulated cytokine (IL-8, IL-6, TNF-α) production [6]: similarly effective in a blocking
effect on LAL activity of LPS in media containing bivalent cations [7]: neither L-37PA nor D-37PA affected LPS's endotoxin activity
effect on LTA and Gro-EL stimulated IL-8 and IL-6 production [8]: similarly effective in blocking

Cc1ccc(S(=O)(=O)N[C@@H](Cc2ccccc2)C(=O)CCl)cc1 [TPCK, tosylphenyl chloromethyl ketone]
effect on LPS-induced SR-BI/CLA-1 mRNA level decrease [1, 12]: effectively prevented
effect on LPS-induced increase of IL-1β mRNA [4, 12]: effectively prevented
effect on LPS-induced ABCA1 mRNA level decrease [9]: effectively prevented

lipid A
competition for 125I-HDL-binding to CLA-1 overexpressing human HeLa cells [10]: all competed

B1: 18A (peptide)
peptide: DWLKAFYDKVAEKLKEAF
notes: Synthetic single class A amphipathic helix; also called 18PA; L18PA
binding result [11]: no binding

Source: US20090011974A1, “Scavenger Receptor B1 (Cla-1) Targeting for the Treatment of Infection, Sepsis and Inflammation” (priority 2002, published 2009)
